Tested on: Calu-6 subcutaneous xenografts
Test: subcutaneous Calu-6 xenograft with fractionated radiation (4 × 5 Gy)
Type: in vivo, mouse
Details: 30 mg/kg oral 30 min before and 5 h after each of 4 × 5 Gy; CD-1 nude mice
Procedure: To examine the effect of NU5455 treatment on efficacy versus a late radiation toxicity, a total dose of 20 Gy of thoracic radiation was administered either to CD-1 nude mice bearing subcutaneous Calu-6 tumors or to non–tumor-bearing C57BL/6 mice, as four 5-Gy fractions given on days 1, 4, 7, and 10. This fractionated regimen was adapted from an existing method ([30]), resulting in focal areas of lung fibrosis at 24 weeks following treatment, but at a level that would enable any exacerbation of fibrosis to be readily detected.
Figure 5 NU5455 augments the effect of fractionated radiotherapy in Calu-6 tumors without enhancing late radiation damage to the lung. (A) Mean tumor volume of mice bearing Calu-6 subcutaneous xenografts treated with localized radiation (4 × 5 Gy on days 1, 4, 7, and 10) with either NU5455 (30 mg/kg orally) or vehicle 30 minutes before and 5 hours after each dose of IR (3–5 mice per group). The time taken to reach 2 times the tumor volume at the start of treatment (RTV2) was also assessed. […] Samples were scored using the modified Ashcroft system on a scale of 0 to 8 (5–9 mice per group). […] Statistical significance was assessed using a log-rank test (A) and 1-way ANOVA (B). *P < 0.05, **P < 0.01, ****P < 0.0001.

CN(C(=O)CN1CCOCC1)c1ccc2sc3c(-c4cccc5c(=O)cc(N6CC7CCC(C6)O7)oc45)cccc3c2c1 [NU5455]
time taken for tumors to double in volume (RTV2): increase the time taken

Source: PMC6934184, “Selective DNA-PKcs inhibition extends the therapeutic index of localized radiotherapy and chemotherapy” (The Journal of Clinical Investigation, 2019)
